Biological target: MYC:TRRAP interaction (Homo sapiens, UniProt P01106+Q9Y4A5)
Assay: MYC:TRRAP in-cell luminescence complementation assay (NanoBiT; SmB-MYC 1-190 and TRRAP 2033-2283-LgB in HeLa cells)
Type: cell-based
Conditions: not given
Method: HeLa cells plated on Greiner 96-well TC-rated white plates with clear bottoms were used for the following measurements. Reverse transfections were carried out using LipoD293™ before cells were plated. A bluescript KS' plasmid (Addgene) was used as carrier DNA for transfections, and a pcDNA3.1 EGFP plasmid (ThermoFisher) was used as a fluorescence reporter. White light-reflecting film (USA Scientific) was used to cover the bottom of the plates for luminescence measurements. Black light-absorbing film was used to cover the top of the plates for fluorescence measurements. All measurements were taken on a SpectraMax i3 instrument (Molecular Devices).
Transfections were carried out with increasing DNA amounts (1-100 ng per well) of a CMV-driven LgB plasmid and SmB in excess or vice-versa. Background luminesce for the usable range and the amount of DNA needed for vast excess of LgB or SmB were noted. Next, complementation with vast excess either LgB or SmB was used to determine the expression of each of the indicated MYC and TRRAP constructs for a range of DNA amounts per well: 10-100 ng. An optimal ratio of DNA to equalize the expression of each MYC and TRRAP pair was calculated. Then, signal-to-noise ratios were calculated for the indicated MYC and TRRAP pairs, and the pair with the highest ratio was chosen. Finally, the chosen pair was used to determine the optimal DNA transfection mixture. It was determined to be 6.7 ng of a plasmid with a MYC construct, 60 ng of a plasmid with a TRRAP construct and 33.3 ng of the pcDNA 3.1 EGFP plasmid, for each well in a 96-well plate. Unless otherwise indicated, these were the ratios of DNA transfected for this type of assay.
HeLa cells were transfected as above using LipoD293™ with a mixture of SmB-MYC 1-190, TRRAP 2033-2283-LgB, and EGFP in CMV-driven plasmids at the same optimized ratio described above. Two days post-transfection, the media in each well was replaced with fresh media containing each compound from the NCI's sets at 25 μM. Cells were incubated for 2 h with each compound, and luminescence and fluorescence measurements were recorded for each well. Changes in luminescence were normalized to fluorescence. The following pre-plated compound sets were obtained from the NCI/DTP chemical repository and used for this screen:
These chemical sets were used to discover novel small-molecule inhibitors of the MYC:TRRAP complex. SmB-MYC 1-190, TRRAP 2033-2283-LgB, and EGFP were transfected into HeLa cells. Two days post-transfection, compounds were added to the media at 25 μM and cells were incubated for 2h. Luminescence and fluorescence were recorded for each well containing one of the compounds. Changes in luminescence measurements were normalized to fluorescence measurements.
Afterwards, only molecules that reduced luminescence levels to <50% RLU were considered. This set of 46 compounds were incubated at 10 μM with vector-expressing cells. Luminescence complementation was measured and repeated in triplicate measurements. In addition, HeLa cells expressing LgB and SmB alone were incubated with the same compounds to rule out potentially artificial results due to inhibition of luciferase or its complementation. Molecules that induces any significant reduction in luminescence (<0.6) during this control assay were not considered further. Of 2947 molecules, 17 were chosen for further testing and ordered from the NCI/DTP Open Chemical Repository. FIG. 16 describes these chosen compounds.
Using the luminescence assay above as a readout for the MYC:TRRAP interaction, we used a robotic liquid handler to evaluate 2987 additional compounds (25 μM). All primary hits were counter-screened for any activity against the luciferase enzyme itself and for any effects on the expression of the fusion proteins. We set a threshold of 50% inhibition to consider compounds further. Only 17 out of 2987 passed all these criteria (0.6%). […]

Chain of MYC:TRRAP interaction (P01106 16-205): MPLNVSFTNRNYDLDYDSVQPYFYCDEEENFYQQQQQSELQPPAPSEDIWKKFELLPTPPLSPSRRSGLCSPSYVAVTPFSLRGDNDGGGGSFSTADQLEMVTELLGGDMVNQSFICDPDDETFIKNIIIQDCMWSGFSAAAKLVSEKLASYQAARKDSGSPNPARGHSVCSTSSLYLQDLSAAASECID
Chain of MYC:TRRAP interaction (Q9Y4A5 2051-2301): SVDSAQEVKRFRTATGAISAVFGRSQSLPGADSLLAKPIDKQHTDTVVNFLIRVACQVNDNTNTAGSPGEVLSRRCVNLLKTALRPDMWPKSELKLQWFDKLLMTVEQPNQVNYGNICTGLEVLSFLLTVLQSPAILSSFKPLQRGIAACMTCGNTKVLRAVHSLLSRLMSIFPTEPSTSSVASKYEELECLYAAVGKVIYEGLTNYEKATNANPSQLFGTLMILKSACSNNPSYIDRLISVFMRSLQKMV

In the case of CC[C@H](C)[C@@H]1/N=C(\O)[C@@H](NC(=O)c2c3nc4c(C(=O)N[C@@H]5/C(O)=N/[C@@H](C(C)C)C(=O)N6CCC[C@H]6C(=O)N(C)CC(=O)N(C)[C@@H](C(C)C)C(=O)O[C@@H]5C)ccc(C)c4oc-3c(C)c(=O)c2N)[C@@H](C)OC(=O)[C@H](C(C)C)N(C)C(=O)CN(C)C(=O)[C@@H]2CCCN2C1=O [Compound 20, 2-amino-1-N-[(3S,6S,7R,10S, 16S)-3-[(2S)-butan-2-yl]-7,11,14-trimethyl-2,5,9,12,15-pentaoxo-10-propan-2-yl-8-oxa-1,4,11,14-tetrazabicyclo [14.3.0]nonadecan-6-yl]-4,6-dimethyl-3-oxo-9-N-[(3S,6S,7R, 10S,16S)-7,11,14-trimethyl-2,5,9,12,15-pentaoxo-3,10-di(propan-2-yl)-8-oxa-1,4,11,14-tetrazabicyclo [14.3.0]nonadecan-6-yl]phenoxazine-1,9-dicarboxamide], the “% Inhibition 10 uM” value is reported as 41.4%.

Same assay, conditions: Table 1; 46 primary hits at 10 uM; HeLa cells; triplicate measurements

Compared with CC1(C)CCC2=C(O1)c1ccccc1C(=O)C2=O [Compound 40, 2,2-dimethyl-3,4-dihydrobenzo[h] chromene-5,6-dione], Cc1cc(O)c(C(C)C)cc1C1(c2cc(C(C)C)c(O)cc2C)OC(=O)c2ccccc21 [Compound 2, 3,3-bis(4-hydroxy-2-methyl-5-propan-2-ylphenyl)-2-benzofuran-1-one] is lower in “% Inhibition 10 uM” value: 76.06% for the first, 11.16% for the second.

Going from Cc1ccc(Cl)cc1NC(=O)c1cc2ccccc2cc1O [Compound 9, N-(5-chloro-2-methylphenyl)-3-hydroxy-naphthalene-2-carboxamide] to COc1cc2c3c(cc4ccccc4c3c1O)N(C)CC2 [Compound 39], the “% Inhibition 10 uM” value rises from 48.59% to 73.42%.

First: COc1ccc(OC)c(-c2cc(=O)c3c(OC)c(OC)c(OC)c(OC)c3o2)c1 [Compound 6, 2-(2,5-dimethoxyphenyl)-5,6,7,8-tetramethoxy-chromen-4-one]
Second: COc1c(OC)c2c3c(nccc3c1OC)-c1cc(=O)c(OC)ccc1-2 [Compound 30]
The “% Inhibition 10 uM” value of the first is lower: 33.66% for the first, 68.68% for the second.

Going from CC1=C(C)C(=O)O[C@H]([C@](C)(O)[C@]2(O)CC[C@@]3(O)[C@@H]4C[C@H]5O[C@]56CC=CC(=O)[C@]6(C)[C@H]4CC[C@]23C)C1 [Compound 33, (1S,2R,7S,9R,11R, 12R,15S,16S)-15-[(1S)-1-[(2S)-4,5-dimethyl-6-oxo-2,3-dihydropyran-2-yl]-1-hydroxyethyl]-12,15-dihydroxy-2,16-dimethyl-8-oxapentacyclo [9.7.0.02, 7.07,9.012,16] octadec-4-en-3-one] to COC(=O)c1cc(-c2c[nH]cc2C(=O)OCc2ccccc2)cn1S(=O)(=O)c1ccc(C)cc1 [Compound 8, methyl 1-(4-methylphenyl) sulfonyl-4-(4-phenylmethoxycar-bonyl-1H-pyrrol-3-yl)pyrrole-2-carboxylate], the “% Inhibition 10 uM” value rises from 29.74% to 33.32%.

Same assay, conditions: Table 2; compounds with >80% similarity to compound 10 (NSC657456); 10 uM

Going from Oc1[nH]c2ccccc2c1/N=N/C(=S)N1CCCC1 [Compound 1033, N-((2-hydroxy-1H-indol-3-yl)imino] pyrrolidine-1-carbothioamide] to O=C(/N=N/c1c(O)[nH]c2ccccc12)C(F)(F)F [Compound 1019, 2,2,2-trifluoro-N-[(2-hydroxy-1H-indol-3-yl)imino] acetamide], the “% Inhibition 10 uM” value falls from 86.96% to 82.34%.

Compared with Cc1sc(/N=N/c2c(O)[nH]c3ccccc23)nc1-c1ccccc1 [Compound 1027, 3-[(5-methyl-4-phenyl-1,3-thiazol-2-yl)diazenyl]-1H-indol-2-ol], N=C(/N=N/c1c(O)[nH]c2ccccc12)N[N+](=O)[O-] [Compound 102, 1-[(2-hydroxy-1H-indol-3-yl)imino]-3-nitroguanidine] is higher in “% Inhibition 10 uM” value: 50.66% for the first, 100.4% for the second.

c1ccc2c(c1)=NOc1[nH]c3ccccc3c1N=2 [Compound 1039, 5H-indolo[2,3-c][2,1,5]ben-zoxadiazepine] was tested, and the “% Inhibition 10 uM” value was 59.84%.

— patent publication US20260216144A1, “TARGETING MB2 OF THE MYC ONCOGENE AND ITS INTERACTION WITH TRRAP IN CANCER” (priority 2019, published 2026)
